Assay results: US20260364038A1, “VASODILATOR, NITRIC OXIDE SYNTHASE PRODUCTION PROMOTER, AND USE OF SAME” (J-OIL MILLS, INC., priority 2022, published 2026)
Read-outs that look alike come from different tables or passages of the source.

What was measured:
[1] = test system: endothelial nitric oxide synthase (eNOS) genetic expression in HUVECs; assay: Relative eNOS genetic expression amount in HUVECs (OneStep real-time RT-PCR, Taqman probe, ddCt method); assay type: cell-based; details: 24 hours; for Relative eNOS genetic expression amount, Significant difference: vs control example 1, Dunnett's test; for action for promoting production of endothelial nitric oxide synthase (conclusion in words): 30 μM; for fold induction at 30 µM / fold induction at 1 µM: Homo sapiens, HUVEC
Protocol: HUVECs (made by Lonza; catalog no.: C2519AS)
EGM-2 (made by Lonza; catalog no.: CC-3162)
The substances under test in (1) to (3) below were each dissolved in dimethyl sulfoxide (DMSO) (made by Nacalai Tesque) to prepare solutions having a concentration of 30 mM, and the solutions were added to the culture medium at a 1/1000 proportion to prepare culture media in which the target final concentration of the respective substances under test was 30 μM (Examples 1 to 3).
• (1) Tetradecanoic acid (C14:0) (purity: 100%; made by Sigma-Aldrich) • (2) Pentadecanoic acid (C15:0) (purity: 98.8%; made by Sigma-Aldrich) • (3) Tridecanoic acid (C13:0) (purity: 99.2%; made by Sigma-Aldrich) • (4) Fluvastatin (made by Tokyo Chemical Industry Co., Ltd.; model no.: F0820)
The HUVECs were thawed in a T75 flask and cultured in a CO2 incubator (“SCA-165DRS” made by Astec Co., Ltd.; conditions: 37 °C, 5% CO2, humid; same below) using the EGM-2. The cells were isolated using a 0.05% concentration trypsin solution (“Trypsin-EDTA (0.05%), phenol red” made by Thermo Fisher Scientific; catalog no.: 25300054), sown in a 96-well plate using the culture medium, and cultured in the CO2 incubator. The next day, the culture medium was replaced with the culture media prepared in section “(3. Preparation of substances under test)” above, and the cells were then cultured for 24 hours in the CO2 incubator to carry out treatment using the substances under test.
[5. RNA Extraction, qPCR]
After the treatment, a culture medium supernatant was recovered, RNA was extracted from the cells using a FastLane Cell Probe kit (made by QIAGEN; catalog no.: 215011), OneStep real-time RT-PCR was carried out using a Taqman probe, and the relative eNOS genetic expression amount was calculated by means of the ddCt method. The relative eNOS genetic expression amount was derived by dividing the eNOS genetic expression amount by the GAPDH genetic expression amount.
A significant difference between the substance-under-test treatment groups (control example 2 and the examples) and control example 1 was certified by means of Dunnett's test.

[2] = test system: endothelial nitric oxide synthase; details: positive control; stated as known; cited from earlier work
[3] = 30 μM final concentration, average of n1-n5, control example 1 (none added) = 1.00, read-out: Relative eNOS genetic expression amount, Average value of n1-n5
[4] = 30 μM final concentration, replicate n1, eNOS/GAPDH, relative to control example 1, read-out: Relative eNOS genetic expression amount, n1
[5] = 30 μM final concentration, replicate n2, eNOS/GAPDH, relative to control example 1, read-out: Relative eNOS genetic expression amount, n2
[6] = 30 μM final concentration, replicate n3, eNOS/GAPDH, relative to control example 1, read-out: Relative eNOS genetic expression amount, n3
[7] = 30 μM final concentration, replicate n4, eNOS/GAPDH, relative to control example 1, read-out: Relative eNOS genetic expression amount, n4
[8] = 30 μM final concentration, replicate n5, eNOS/GAPDH, relative to control example 1, read-out: Relative eNOS genetic expression amount, n5

Row | Structure (SMILES) | Relative eNOS genetic expression amount, Significant difference ([1]; 30 μM final concentration) | action for promoting production of endothelial nitric oxide synthase (conclusion in words) [1] | fold induction at 30 µM [1, 3] | fold induction at 30 µM [1, 4] | fold induction at 30 µM [1, 5] | fold induction at 30 µM [1, 6] | fold induction at 30 µM [1, 7] | fold induction at 30 µM [1, 8] | Relative eNOS genetic expression amount (in words) ([1]; 1 μM (control example 2), compared with control example 1) | Relative eNOS genetic expression amount, Significant difference ([1]; 1 μM final concentration (positive control)) | fold induction at 1 µM ([1]; 1 μM final concentration (positive control), average of n1-n5, control example 1 (none added) = 1.00, read-out: Relative eNOS genetic expression amount, Average value of n1-n5) | fold induction at 1 µM ([1]; 1 μM final concentration (positive control), replicate n1, eNOS/GAPDH, relative to control example 1, read-out: Relative eNOS genetic expression amount, n1) | fold induction at 1 µM ([1]; 1 μM final concentration (positive control), replicate n2, eNOS/GAPDH, relative to control example 1, read-out: Relative eNOS genetic expression amount, n2) | fold induction at 1 µM ([1]; 1 μM final concentration (positive control), replicate n3, eNOS/GAPDH, relative to control example 1, read-out: Relative eNOS genetic expression amount, n3) | fold induction at 1 µM ([1]; 1 μM final concentration (positive control), replicate n4, eNOS/GAPDH, relative to control example 1, read-out: Relative eNOS genetic expression amount, n4) | fold induction at 1 µM ([1]; 1 μM final concentration (positive control), replicate n5, eNOS/GAPDH, relative to control example 1, read-out: Relative eNOS genetic expression amount, n5) | known action for promoting the production of endothelial nitric oxide synthase [2]
1 | CCCCCCCCCCCCCC(=O)O [Example 1, Tetradecanoic acid] | ** (Level of significance across both sides: 1%) | have an action for promoting production of endothelial nitric oxide synthase | 1.26 | 1.27 | 1.26 | 1.31 | 1.12 | 1.33 |  |  |  |  |  |  |  |  | 
2 | CCCCCCCCCCCCCCC(=O)O [Example 2, Pentadecanoic acid] | ** (Level of significance across both sides: 1%) | have an action for promoting production of endothelial nitric oxide synthase | 1.26 | 1.15 | 1.28 | 1.2 | 1.36 | 1.3 |  |  |  |  |  |  |  |  | 
3 | CCCCCCCCCCCCC(=O)O [Example 3, Tridecanoic acid] | ** (Level of significance across both sides: 1%) | have an action for promoting production of endothelial nitric oxide synthase | 1.25 | 1.15 | 1.33 | 1.26 | 1.28 | 1.24 |  |  |  |  |  |  |  |  | 
4 | CC(C)n1c(/C=C/C(O)CC(O)CC(=O)O)c(-c2ccc(F)cc2)c2ccccc21 (stereo not drawn) [Fluvastatin, reference compound] |  |  |  |  |  |  |  |  | significantly higher than that in control example 1 | ** (Level of significance across both sides: 1%) | 2.62 | 2.45 | 2.57 | 2.57 | 2.89 | 2.61 | known to have an action for promoting the production of endothelial nitric oxide synthase
